From patent US6630140B1, “Compositions and methods for treatment of asthma” (The Children's Hospital of Philadelphia, priority 1998, dated 2003)
Structures can show the parent of a compound that is named as a salt.

How the values were obtained:
[1] = tested on: tracheal smooth muscle (TSM) segments; test: Relaxation dose-response to isoproterenol in TSM segments half-maximally contracted with ACh; format: cell-based, rabbit
Experimental: Rabbits were anesthetized with xylazine (10 mg/kg) and ketarnine (50 mg/kg) and were subsequently sacrificed using an overdose of pentobarbital (130 mg/kg). The tracheae of the rabbits were removed via open thoracotomy, the tracheae were cleared of loose connective tissue and were divided into eight ring segments of 6-8 mm length. Each segment referred to herein as a tracheal smooth muscle (TSM) segment was incubated for 24 hours at room temperature in either of the following: 1) human serum containing immunoglobulin (Ig) E at greater than 1000 IU/ml which was obtained from allergic patients having moderate to severe asthma and a 4-5/6+radioallergosorbent test (RAST) positive (having a specific IgE concentration of more than 17.5 Phadebas RAST units (PRU)/ml) to Dermatophagoides pteronyssimus, Dermatophagoides farinae and ragweed, and a positive skin test to these antigens; or 2) human serum obtained from non-atopic, non-asthmatic individuals having normal serum IgE levels (i.e., <70 IU/ml) and negative skin test reactivity to Dermatophagoides pteronyssimus, Dermatophagoides farinae and ragweed (Hakonarson et al. 1995, Am. J. Physiol. (Lung Cell Mol. Physiol.) 269:L645-L652).
In parallel experiments, TSM segments were incubated in either control serum or in atopic asthmatic serum that was: a) depleted of its immunoglobulin complexes by pretreatment with sepharose Staphylococcus protein A as described (Kessler, 1975, J. Immunol. 1 15:161.7-1624); b) co-incubated with an anti-CD23 (40 μg/ml) monoclonal blocking antibody; or c) with an anti-CD 16 (2 μg/ml) monoclonal blocking antibody. The TSM segments were treated with their respective anti-CD23 or anti-CD16 antibodies in Dulbecco's modified Eagle's medium for 1 hour prior to exposure to the atopic asthmatic serum.
In extended experiments, paired TSM segments were incubated for 24 hours in Dulbecco's modified Eagle's medium, as previously described (Hakonarson et al., 1996, J. Clin. Invest. 97:2593-2600), containing either: a) human IgE (final bath concentration (FBC): 15 μg/ml); or b) human IgE-goat-anti-human IgE immune complexes (FBC: 15:5 μg/ml of IgE/anti-IgE in the final organ bath mixture). Tissues incubated in medium alone served as controls. The concentrations of immune complexes used for the TSM incubations were based on the results obtained in pilot studies which were designed to determine the concentration and ratio of immune complexes that induced the greatest acute contractile effect in isolated sensitized TSM segments. The serum was aerated with a continuous supplemental O2 mixture (95% O2/5% CO2) during the incubation phase.
Following incubation of the tissue preparations obtained as described herein, each rabbit airway segment was suspended longitudinally between stainless steel triangular supports in siliconized Harvard 20 ml organ baths. […] Care was taken to place the membranous portion of the trachea between the supports in order to maximize the recorded tension generated by the contracting trachealis muscle. The tissues were bathed in modified Krebs-Ringer solution containing 125 mM NaCl, 14 mM NaHCO3, 4 mM KCl, 2.25 mM CaCl2.H2O, 1.46 MgSO4.H2O, 1.2 mM NaH2PO4.H2O and 11 mM glucose. The baths were aerated with 5% CO2 in oxygen, a pH of 7.35-7.40 was maintained, and the organ bath temperature was held at 37° C. Passive resting tension of each TSM segment was set at 2.0 g after each tissue had been passively stretched to a tension of 8 g in order to optimize the resting length of each segment as described (Tanaka et al., 1990, J. Clin. Invest. 85:345-350). The tissues were allowed to equilibrate in the organ baths for 45 minutes, at which time each tissue was primed with a 1 minute exposure to 10−4 M acetylcholine (ACh). […]

[2] = tested on: tracheal smooth muscle (TSM) segments; test: Cholinergic contractility of isolated TSM segments to cumulative ACh (organ bath, isometric tension); format: cell-based, rabbit
Experimental: Rabbits were anesthetized with xylazine (10 mg/kg) and ketarnine (50 mg/kg) and were subsequently sacrificed using an overdose of pentobarbital (130 mg/kg). The tracheae of the rabbits were removed via open thoracotomy, the tracheae were cleared of loose connective tissue and were divided into eight ring segments of 6-8 mm length. […]
Following incubation of the tissue preparations obtained as described herein, each rabbit airway segment was suspended longitudinally between stainless steel triangular supports in siliconized Harvard 20 ml organ baths. […] Care was taken to place the membranous portion of the trachea between the supports in order to maximize the recorded tension generated by the contracting trachealis muscle. […]

[3] = TSM incubated with control serum

Compound | Rmax (% maximal relaxation) for isoproterenol ([1]; IgE immune complex-treated TSM (15:5 μg/ml, 24 h)) [%] | Rmax (% maximal relaxation) for isoproterenol ([1]; atopic asthmatic serum-sensitized TSM) [%] | Rmax (% maximal relaxation) for isoproterenol ([1]; control TSM, vehicle alone 24 h) [%] | Rmax (% maximal relaxation) for isoproterenol ([1]; control serum-treated TSM) [%] | Effect on relaxation responsiveness to isoproterenol [1, 3] | Effect on the attenuated isoproterenol-induced relaxation responses ([1]; atopic asthmatic serum-sensitized TSM, tissue pretreated with antibody (anti-CD23 40 μg/ml, anti-CD16 2 μg/ml) or serum depleted with SpA) | Effect on contractility of the tissue to ACh [2, 3] | Effect on the induced augmented constrictor responses to ACh ([2]; atopic asthmatic serum-sensitized TSM, tissue pretreated with antibody (anti-CD23 40 μg/ml, anti-CD16 2 μg/ml) or serum pre-treated with SpA)
CC(C)NCC(O)c1ccc(O)c(O)c1 (centres unmarked) [isoproterenol, isoproterenol hydrochloride] | 36.8±10.4 | 26.0±5.1 | 67.8±6.0 | 47.0±4.7 |  |  |  | 
SpA: Sepharose Staphylococcus protein A used to deplete the sensitizing serum of its immune complexes |  |  |  |  | neither anti-CD23 MAb nor pretreatment of the control serum with SpA affected | ablated | neither anti-CD23 MAb nor pretreatment of the control serum with SpA affected | largely prevented
